Our source for the inhibition in vivo and IC50 values is US8710043B2, “TRPM8 antagonists and their use in treatments” (Amgen Inc., priority 2011, dated 2014).

For assay [1], the system named is icilin induced wet-dog shakes. The assay can be described thus: Inhibition of icilin induced shaking (wet-dog shakes) in rats. Format: in vivo. The conditions noted are these: Rattus norvegicus, po; dose 1 mg/kg p.o., 2 h before icilin; male Sprague Dawley rats; shakes counted for 30 min post-icilin. The protocol:
Inhibition of Icilin Induced Shaking in Rats
Example compounds at doses ranging from 0.01 to 3 mg/kg (p.o, suspended in 5% Tween80/Oralplus or suspended in 2% HPMC-1% Tween-80 pH2.2 with MSA, 5 mL/kg) were administered to male Sprague Dawley rats (200-300 g, Harlan, n=6-8/treatment) 2 h before icilin to assess the ability to block the spontaneous wet-dog shake phenomena induced by icilin (i.p., suspended in 100% PEG400 at 0.5 mg/kg, 1 mL/kg or p.o., suspended in 2% HPMC-1% Tween-80 at 3 mg/kg, 2.5 mL/kg). Spontaneous wet-dog shakes were counted manually by two blinded observers or using LABORAS automation (Metris) for 30 min post-icilin.

The next assay has as its target T1, human TRPM8 (Homo sapiens, UniProt Q7Z2W7).
T1 construct: expressed in transfected cells; host or cells: Chinese hamster ovary (CHO) cells, T-REx tetracycline-inducible system, co-transfected with aequorin
The assay can be described thus: Luminescence readout assay for measuring intracellular calcium, icilin activation. Format: cell-based. The conditions noted are these: CHO cells expressing human TRPM8, aequorin luminescence, 1 μM icilin activation; read-out: hTRPM8 IC50. The essentials: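 The read-out was luminescence reporting intracellular calcium, recorded by a CCD-based luminometer. Compounds were preincubated for 2.5 min before agonist challenge with 1 μM icilin. Human TRPM8 was expressed in a stable T-REx CHO line, induced with 0.5 μg/mL tetracycline the day before.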
(In general: A change in cytosolic calcium serves as a functional read-out for many receptors and channels.)

Structures are written as SMILES.

T1 sequence (Q7Z2W7 whole entry): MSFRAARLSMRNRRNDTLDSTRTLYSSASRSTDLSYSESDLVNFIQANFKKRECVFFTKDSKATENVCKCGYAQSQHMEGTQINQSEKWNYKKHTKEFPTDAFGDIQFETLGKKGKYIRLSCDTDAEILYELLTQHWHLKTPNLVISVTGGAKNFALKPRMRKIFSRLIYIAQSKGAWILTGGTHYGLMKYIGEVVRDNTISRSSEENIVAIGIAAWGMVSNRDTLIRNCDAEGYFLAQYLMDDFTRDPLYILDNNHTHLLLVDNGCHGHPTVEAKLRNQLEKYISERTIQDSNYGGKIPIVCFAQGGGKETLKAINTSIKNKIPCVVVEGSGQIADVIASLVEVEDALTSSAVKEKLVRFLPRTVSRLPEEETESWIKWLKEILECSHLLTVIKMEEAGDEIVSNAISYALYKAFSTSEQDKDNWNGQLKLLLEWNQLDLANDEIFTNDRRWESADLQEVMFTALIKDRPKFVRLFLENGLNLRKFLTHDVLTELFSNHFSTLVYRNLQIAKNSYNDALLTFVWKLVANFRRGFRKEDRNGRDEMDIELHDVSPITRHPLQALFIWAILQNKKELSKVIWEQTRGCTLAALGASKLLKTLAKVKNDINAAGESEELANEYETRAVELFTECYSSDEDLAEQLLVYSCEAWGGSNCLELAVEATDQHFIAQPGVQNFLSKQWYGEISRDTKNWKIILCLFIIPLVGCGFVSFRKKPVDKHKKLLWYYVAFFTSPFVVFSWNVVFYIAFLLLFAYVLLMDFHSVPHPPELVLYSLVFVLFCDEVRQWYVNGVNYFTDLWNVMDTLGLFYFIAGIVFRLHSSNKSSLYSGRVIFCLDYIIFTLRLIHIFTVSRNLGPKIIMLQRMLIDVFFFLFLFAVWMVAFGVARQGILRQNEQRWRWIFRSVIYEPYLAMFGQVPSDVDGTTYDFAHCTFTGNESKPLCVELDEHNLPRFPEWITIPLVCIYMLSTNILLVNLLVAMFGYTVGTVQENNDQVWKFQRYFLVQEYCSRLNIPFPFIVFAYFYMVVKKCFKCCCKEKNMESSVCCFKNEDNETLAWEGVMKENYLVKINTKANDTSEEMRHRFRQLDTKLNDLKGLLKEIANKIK

Turning to `O=C(N[C@@H](c1ccc(C(F)(F)F)cc1)c1ncccc1F)c1ccc2oc(=O)[nH]c2c1` [Example 76, (S)-N-((3-fluoropyridin-2-yl)(4-(tnfluoromethyl)phenyl)methyl)-2-oxo-2,3-dihydrobenzo[d]oxazole-5-carboxamide], at 1 mg/kg the inhibition in vivo in assay [1] was 100%. Further, the IC50 – broadly, the midpoint of a concentration-inhibition curve – on human TRPM8 was determined as 4.5 nM.
`O=C(N[C@@H](c1ccc(OC(F)(F)F)cc1)c1ccccn1)c1ccc2oc(=O)[nH]c2c1` [Example 362, (S)-2-oxo-N-(pyridin-2-yl(4-(trifluoromethoxy)phenyl)methyl)-2,3-dihydrobenzo[d]oxazole-5-carboxamide]: the inhibition in vivo (as a rule, the change of the read-out against control, counted positive when it falls) at 1 mg/kg in assay [1] came out at 98%. The IC50 on human TRPM8 was determined as 4.2 nM.
The corresponding values for `O=C(N[C@@H](c1ccc(OC(F)(F)F)c(F)c1)c1ncccc1F)c1ccc2[nH]c(=O)oc2n1` [Example 426, (S)—N-((3-fluoro-4-(trifluoromethoxy)phenyl)(3-fluoropyridin-2-yl)methyl)-2-oxo-1,2-dihydrooxazolo[5,4-b]pyridine-5-carboxamide] are 53% and 9.7 nM.
Compound `O=C(N[C@@H](c1ccc(OC(F)(F)F)cc1)c1ccccn1)c1ccc(=O)[nH]c1` [Example 377, (S)-6-oxo-N-(pyridin-2-yl(4-(trifluoromethoxy)phenyl)methyl)-1,6-dihydropyridine-3-carboxamide] had an inhibition in vivo at 1 mg/kg in assay [1] of 94%. Besides, the IC50 on human TRPM8 is 20.7 nM.
For the compound `Cn1cc(C(=O)N[C@@H](c2ccc(OC(F)(F)F)c(F)c2)c2ncccc2F)ccc1=O` [Example 103, (S)-N-((3-fluoro-4-(trifluoromethoxy)phenyl)(3-fluoropyridin-2-yl)methyl)-1-methyl-6-oxo-1,6-dihydropyridine-3-carboxamide], at 1 mg/kg the inhibition in vivo in assay [1] was 97%. On human TRPM8, the IC50 came out at 7.8 nM.
In the case of `O=C(N[C@@H](c1ccc(OC(F)(F)F)c(F)c1)c1ccccc1F)c1ccc(=O)[nH]c1` [Example 295, (S)-N-((3-fluoro-4-(trifluoromethoxy)phenyl)(2-fluorophenyl)methyl)-6-oxo-1,6-dihydropyridine-3-carboxamide], the inhibition in vivo at 1 mg/kg in assay [1] amounted to 77%. On human TRPM8, the IC50 was 18 nM.
Regarding `C[C@@H](O)Cn1cc(C(=O)N[C@@H](c2ccc(OC(F)(F)F)c(F)c2)c2ncccc2F)ccc1=O` [Example 299, N-((S)-(3-fluoro-4-(trifluoromethoxy)phenyl)(3-fluoropyridin-2-yl)methyl)-1-((R)-2-hydroxypropyl)-6-oxo-1,6-dihydropyridine-3-carboxamide], the inhibition in vivo at 1 mg/kg in assay [1] amounted to 56%. Moreover, at human TRPM8, the IC50 came out at 17.5 nM.
In assay [1], `Cc1cccnc1[C@@H](NC(=O)c1ccc(=O)n(C)c1)c1ccc(OC(F)(F)F)c(F)c1` [Example 348, (S)-N-((3-fluoro-4-(trifluoromethoxy)phenyl)(3-methylpyridin-2-yl)methyl)-1-methyl-6-oxo-1,6-dihydropyridine-3-carboxamide] registered an inhibition in vivo at 1 mg/kg of 51%. The IC50 at human TRPM8 is 15.4 nM.
With `Cn1cc(C(=O)N[C@@H](c2ccc(C(F)(F)F)cc2)c2ncccc2F)ccc1=O` [Example 68, (S)-N-((3-fluoropyridin-2-yl)(4-(trifluoromethyl)phenyl)methyl)-1-methyl-6-oxo-1,6-dihydropyridine-3-carboxamide], in assay [1], the inhibition in vivo at 1 mg/kg was 100%. In addition, the IC50 at human TRPM8 is 14.2 nM.
